Source: ChEMBL document CHEMBL5291721, “A preclinical secondary pharmacology resource illuminates target-adverse drug reaction associations of marketed drugs” (Nat Commun, 2023)

Key:
[1] = molecular target: T1, Type-2 angiotensin II receptor (Homo sapiens, UniProt P50052); format: functional
[2] = molecular target: T2, Muscarinic acetylcholine receptor M1 (Homo sapiens, UniProt P11229)
T2 sequence (P11229 whole entry): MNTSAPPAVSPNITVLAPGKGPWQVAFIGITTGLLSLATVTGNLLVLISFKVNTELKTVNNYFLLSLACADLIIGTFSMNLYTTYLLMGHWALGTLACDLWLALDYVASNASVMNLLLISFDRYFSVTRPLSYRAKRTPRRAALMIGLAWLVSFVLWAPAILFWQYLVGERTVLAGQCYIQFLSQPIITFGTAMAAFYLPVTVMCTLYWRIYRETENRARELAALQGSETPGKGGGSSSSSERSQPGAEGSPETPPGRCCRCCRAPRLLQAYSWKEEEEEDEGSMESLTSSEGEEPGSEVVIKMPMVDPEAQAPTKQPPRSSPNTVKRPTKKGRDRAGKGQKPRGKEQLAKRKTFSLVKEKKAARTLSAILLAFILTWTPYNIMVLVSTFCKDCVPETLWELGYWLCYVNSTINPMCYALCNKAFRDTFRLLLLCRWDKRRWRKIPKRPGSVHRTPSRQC

[3] = molecular target: T3, Type-1 angiotensin II receptor (Homo sapiens, UniProt P30556)
T3 sequence (P30556 whole entry): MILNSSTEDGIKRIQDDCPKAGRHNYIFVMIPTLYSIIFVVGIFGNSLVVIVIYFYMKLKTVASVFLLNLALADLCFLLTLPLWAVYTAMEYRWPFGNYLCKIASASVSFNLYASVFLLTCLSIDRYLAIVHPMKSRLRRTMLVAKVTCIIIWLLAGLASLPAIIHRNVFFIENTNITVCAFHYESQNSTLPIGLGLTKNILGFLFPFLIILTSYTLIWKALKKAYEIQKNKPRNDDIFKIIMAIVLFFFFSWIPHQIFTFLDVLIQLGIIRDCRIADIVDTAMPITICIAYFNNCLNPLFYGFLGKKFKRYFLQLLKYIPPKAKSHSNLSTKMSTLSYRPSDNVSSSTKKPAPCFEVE

[4] = molecular target: T1, Type-2 angiotensin II receptor; format: functional; remark: listed apart in the source
[5] = molecular target: Hydroxycarboxylic acid receptor 2 (Homo sapiens, UniProt Q8TDS4)
Sequence of Hydroxycarboxylic acid receptor 2 (Q8TDS4 whole entry): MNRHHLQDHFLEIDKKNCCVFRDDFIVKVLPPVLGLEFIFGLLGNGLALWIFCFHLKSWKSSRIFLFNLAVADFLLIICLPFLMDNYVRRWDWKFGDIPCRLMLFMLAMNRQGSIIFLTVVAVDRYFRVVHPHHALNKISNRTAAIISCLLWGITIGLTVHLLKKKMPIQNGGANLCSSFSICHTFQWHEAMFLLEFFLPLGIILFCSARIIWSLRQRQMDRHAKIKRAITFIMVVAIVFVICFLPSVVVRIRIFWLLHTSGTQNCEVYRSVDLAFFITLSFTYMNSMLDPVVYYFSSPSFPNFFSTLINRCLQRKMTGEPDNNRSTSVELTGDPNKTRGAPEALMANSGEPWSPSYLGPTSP

[6] = molecular target: T2, Muscarinic acetylcholine receptor M1; format: functional, cell-based
[7] = molecular target: T2, Muscarinic acetylcholine receptor M1; format: functional, cell-based; remark: listed apart in the source
[8] = molecular target: 5-hydroxytryptamine receptor 2B (Homo sapiens, UniProt P41595)
Sequence of 5-hydroxytryptamine receptor 2B (P41595 whole entry): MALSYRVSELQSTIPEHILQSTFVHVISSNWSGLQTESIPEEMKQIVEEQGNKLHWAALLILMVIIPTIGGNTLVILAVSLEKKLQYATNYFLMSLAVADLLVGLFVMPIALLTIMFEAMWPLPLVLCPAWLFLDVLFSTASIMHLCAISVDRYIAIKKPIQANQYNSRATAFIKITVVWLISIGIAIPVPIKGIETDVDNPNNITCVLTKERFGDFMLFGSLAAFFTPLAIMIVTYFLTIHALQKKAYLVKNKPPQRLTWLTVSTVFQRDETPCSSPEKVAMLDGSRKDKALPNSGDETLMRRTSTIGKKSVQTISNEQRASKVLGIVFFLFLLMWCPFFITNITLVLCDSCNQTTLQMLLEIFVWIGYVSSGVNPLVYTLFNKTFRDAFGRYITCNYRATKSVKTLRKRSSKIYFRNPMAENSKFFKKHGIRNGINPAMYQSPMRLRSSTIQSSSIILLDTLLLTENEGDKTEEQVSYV

[9] = molecular target: Voltage-dependent L-type calcium channel subunit alpha-1C (Homo sapiens, UniProt Q13936); format: functional, cell-based
Sequence of Voltage-dependent L-type calcium channel subunit alpha-1C (Q13936 whole entry): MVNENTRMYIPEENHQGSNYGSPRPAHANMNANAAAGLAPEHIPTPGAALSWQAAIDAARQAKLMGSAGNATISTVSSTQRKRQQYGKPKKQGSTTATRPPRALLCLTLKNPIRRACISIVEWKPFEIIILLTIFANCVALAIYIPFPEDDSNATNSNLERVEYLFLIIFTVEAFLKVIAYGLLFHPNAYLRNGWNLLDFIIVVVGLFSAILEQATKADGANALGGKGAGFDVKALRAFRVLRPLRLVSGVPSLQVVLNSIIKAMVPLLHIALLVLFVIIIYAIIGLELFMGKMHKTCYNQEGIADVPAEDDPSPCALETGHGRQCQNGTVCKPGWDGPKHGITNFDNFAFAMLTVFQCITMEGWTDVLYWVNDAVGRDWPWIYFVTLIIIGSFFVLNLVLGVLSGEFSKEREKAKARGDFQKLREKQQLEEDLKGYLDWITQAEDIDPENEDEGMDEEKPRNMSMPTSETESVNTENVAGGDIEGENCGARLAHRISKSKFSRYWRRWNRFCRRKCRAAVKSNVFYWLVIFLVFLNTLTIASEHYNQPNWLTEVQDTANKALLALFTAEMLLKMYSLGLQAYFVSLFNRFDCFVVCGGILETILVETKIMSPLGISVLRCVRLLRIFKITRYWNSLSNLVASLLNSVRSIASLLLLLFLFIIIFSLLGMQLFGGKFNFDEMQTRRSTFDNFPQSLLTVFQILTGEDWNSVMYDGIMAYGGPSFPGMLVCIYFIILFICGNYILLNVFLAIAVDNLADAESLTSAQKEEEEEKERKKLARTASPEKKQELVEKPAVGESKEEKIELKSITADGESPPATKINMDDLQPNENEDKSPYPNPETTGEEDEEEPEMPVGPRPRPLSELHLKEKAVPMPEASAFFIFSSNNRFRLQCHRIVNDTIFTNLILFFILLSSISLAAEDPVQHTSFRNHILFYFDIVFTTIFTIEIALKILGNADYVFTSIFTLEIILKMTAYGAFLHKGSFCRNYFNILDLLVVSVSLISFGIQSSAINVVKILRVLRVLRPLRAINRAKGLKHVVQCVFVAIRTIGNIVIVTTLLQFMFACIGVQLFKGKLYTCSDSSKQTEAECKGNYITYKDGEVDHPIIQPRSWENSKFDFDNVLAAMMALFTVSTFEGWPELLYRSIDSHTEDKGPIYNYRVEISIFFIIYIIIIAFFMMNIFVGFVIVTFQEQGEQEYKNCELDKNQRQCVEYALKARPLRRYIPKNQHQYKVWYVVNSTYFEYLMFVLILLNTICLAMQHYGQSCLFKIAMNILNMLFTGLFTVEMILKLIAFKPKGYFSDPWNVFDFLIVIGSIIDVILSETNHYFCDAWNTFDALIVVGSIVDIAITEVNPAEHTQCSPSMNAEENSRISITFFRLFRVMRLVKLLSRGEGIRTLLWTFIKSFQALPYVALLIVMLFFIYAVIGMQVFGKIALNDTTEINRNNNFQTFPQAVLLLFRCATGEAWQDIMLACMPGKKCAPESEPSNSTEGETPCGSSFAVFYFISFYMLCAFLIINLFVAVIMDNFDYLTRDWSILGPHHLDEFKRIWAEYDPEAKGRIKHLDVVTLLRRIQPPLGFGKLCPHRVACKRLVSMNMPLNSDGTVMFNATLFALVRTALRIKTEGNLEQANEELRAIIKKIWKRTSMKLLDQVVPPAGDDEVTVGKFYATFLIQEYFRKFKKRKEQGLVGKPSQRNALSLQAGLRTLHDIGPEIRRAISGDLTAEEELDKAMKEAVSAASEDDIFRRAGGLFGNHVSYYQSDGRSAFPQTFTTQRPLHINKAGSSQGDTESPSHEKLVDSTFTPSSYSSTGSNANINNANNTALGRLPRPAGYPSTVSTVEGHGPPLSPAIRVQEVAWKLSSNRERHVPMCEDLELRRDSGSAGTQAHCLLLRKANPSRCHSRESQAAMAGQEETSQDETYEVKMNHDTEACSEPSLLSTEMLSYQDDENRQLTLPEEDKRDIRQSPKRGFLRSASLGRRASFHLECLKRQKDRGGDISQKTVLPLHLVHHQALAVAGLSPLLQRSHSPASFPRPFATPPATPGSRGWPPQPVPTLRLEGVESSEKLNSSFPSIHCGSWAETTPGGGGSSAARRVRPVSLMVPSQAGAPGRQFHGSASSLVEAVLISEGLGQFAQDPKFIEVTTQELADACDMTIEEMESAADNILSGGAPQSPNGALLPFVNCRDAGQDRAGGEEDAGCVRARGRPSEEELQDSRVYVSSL

[10] = molecular target: Sodium-dependent serotonin transporter (Homo sapiens, UniProt P31645)
Sequence of Sodium-dependent serotonin transporter (P31645 whole entry): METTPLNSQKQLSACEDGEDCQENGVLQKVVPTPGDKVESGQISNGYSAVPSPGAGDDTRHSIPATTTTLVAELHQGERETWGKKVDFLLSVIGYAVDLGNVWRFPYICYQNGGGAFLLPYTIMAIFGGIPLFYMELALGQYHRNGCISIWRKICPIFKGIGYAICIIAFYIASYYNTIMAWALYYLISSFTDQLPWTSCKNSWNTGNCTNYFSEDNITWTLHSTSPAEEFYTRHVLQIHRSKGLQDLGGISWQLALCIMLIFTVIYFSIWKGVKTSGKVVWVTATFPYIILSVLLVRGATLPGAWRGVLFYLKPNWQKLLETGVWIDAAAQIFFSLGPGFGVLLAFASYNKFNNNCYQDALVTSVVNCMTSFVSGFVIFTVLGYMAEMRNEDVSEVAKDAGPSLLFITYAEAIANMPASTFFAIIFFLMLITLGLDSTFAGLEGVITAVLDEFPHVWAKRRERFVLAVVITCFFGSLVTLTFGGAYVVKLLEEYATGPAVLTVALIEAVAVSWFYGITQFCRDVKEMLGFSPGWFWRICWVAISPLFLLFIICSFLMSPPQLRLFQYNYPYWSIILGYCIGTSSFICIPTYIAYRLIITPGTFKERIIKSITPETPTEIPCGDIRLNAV

[11] = molecular target: T3, Type-1 angiotensin II receptor; remark: listed apart in the source
D(1A) dopamine receptor = D(1A) dopamine receptor (Homo sapiens, UniProt P21728); format: functional, cell-based
Sequence of D(1A) dopamine receptor (P21728 whole entry): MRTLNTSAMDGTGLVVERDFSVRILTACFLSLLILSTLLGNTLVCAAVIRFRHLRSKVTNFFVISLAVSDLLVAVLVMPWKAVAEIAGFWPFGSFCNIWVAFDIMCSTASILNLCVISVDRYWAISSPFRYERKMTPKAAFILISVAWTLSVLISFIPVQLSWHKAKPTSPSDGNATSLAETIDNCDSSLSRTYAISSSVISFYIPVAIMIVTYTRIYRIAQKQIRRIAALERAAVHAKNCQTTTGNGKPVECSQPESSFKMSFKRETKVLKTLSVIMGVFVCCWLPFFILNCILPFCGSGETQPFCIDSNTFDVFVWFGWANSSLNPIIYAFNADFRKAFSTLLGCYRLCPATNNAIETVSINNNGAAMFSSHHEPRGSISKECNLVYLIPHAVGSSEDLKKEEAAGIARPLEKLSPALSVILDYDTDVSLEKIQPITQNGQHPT
Also: assay procedure not described here.

T1 sequence (P50052 whole entry): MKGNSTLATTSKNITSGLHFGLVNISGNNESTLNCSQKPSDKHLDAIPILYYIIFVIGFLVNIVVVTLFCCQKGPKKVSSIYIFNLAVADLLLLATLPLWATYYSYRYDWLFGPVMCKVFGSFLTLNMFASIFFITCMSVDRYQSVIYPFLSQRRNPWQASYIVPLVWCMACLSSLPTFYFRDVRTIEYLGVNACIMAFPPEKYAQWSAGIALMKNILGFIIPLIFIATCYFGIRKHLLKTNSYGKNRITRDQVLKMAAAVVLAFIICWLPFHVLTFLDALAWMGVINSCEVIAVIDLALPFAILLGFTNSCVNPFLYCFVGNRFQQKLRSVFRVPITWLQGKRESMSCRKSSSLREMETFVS

How did the AC50 [1] turn out when `CC(CCc1ccc(O)cc1)NCCc1ccc(O)c(O)c1` (configuration not stated) [DOBUTAMINE] was run?
Its AC50 is greater than 100 µM.

How did the AC50 [2] turn out when `O=[N+]([O-])c1ccc(O)c2ncccc12` [NITROXOLINE] was run?
Its AC50 is greater than 30 µM.

What does the source list for `CCCc1nc(C(C)(C)O)c(C(=O)O)n1Cc1ccc(-c2ccccc2-c2nnn[nH]2)cc1` [OLMESARTAN]?
AC50 [3]: 0.0008 µM; AC50 [4]: 54 µM

`CCC(=O)O[C@]1(C(=O)SCF)[C@H](C)C[C@H]2[C@@H]3C[C@H](F)C4=CC(=O)C=C[C@]4(C)[C@@]3(F)[C@@H](O)C[C@@]21C` [FLUTICASONE PROPIONATE] was tested. Which AC50 [5] did it give?
The AC50 was greater than 10 µM.

With `CC1OC2(CS1)CN1CCC2CC1` (configuration not stated) [CEVIMELINE] as the compound, how does the AC50 [6] read?
Its AC50 is greater than 30 µM.

And the AC50 [7]?
Its AC50 is 19 µM.

With `CCCN[C@H]1CCc2nc(N)sc2C1` [PRAMIPEXOLE] as the compound, how does the AC50 [8] read?
Its AC50 is 18.4 µM.

Which AC50 [9] does the source give for `OC1(c2ccc(Cl)cc2)c2ccccc2C2=NCCN21` (configuration not stated) [MAZINDOL] here?
The AC50 was greater than 50 µM.

And the AC50 [10]?
Its AC50 is 0.23 µM.

With `CC(C)NCC(O)c1ccc(O)c(O)c1` (configuration not stated) [ISOPROTERENOL] as the compound, how does the AC50 [11] read?
Its AC50 is greater than 100 µM.

With `Cc1cc(C(C)(C)C)cc(C)c1CC1=NCCN1` [XYLOMETAZOLINE] as the compound, how does the AC50 (D(1A) dopamine receptor) read?
Its AC50 is greater than 30 µM.
